From article PMC8444087 (Toxicology and Applied Pharmacology, 2021)
Bridge positions count the residues as written; N and C are the ends. Ends that are not written are not given here.

Tests used:
platelets = test system: platelets; design: method as in Miller et al., 2009; conditions: RGD-containing ligands; ref Miller et al., 2009; cited from earlier work
α1 I-domain = target: T1, α1 I-domain (Homo sapiens, UniProt P56199); assay: Protein static adhesion assay: GST-tagged α1 I-domain adhesion to GLOGEN peptide coating; format: binding; conditions: TC-I-15 200 μM, Obtustatin 20 μM, 6F1 10 μg/ml
T1 construct: GST-tagged αI-domains were tested in static adhesion assays; made in house
T1 sequence (P56199 161-360 limits assumed): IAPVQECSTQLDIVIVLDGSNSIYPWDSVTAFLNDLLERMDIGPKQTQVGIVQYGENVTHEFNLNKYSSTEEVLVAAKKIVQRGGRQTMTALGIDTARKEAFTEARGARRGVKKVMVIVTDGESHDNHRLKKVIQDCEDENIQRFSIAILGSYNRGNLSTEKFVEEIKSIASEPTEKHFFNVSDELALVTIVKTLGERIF
Protocol: Immulon 2HB 96-well plates were coated with 100 μl per well of peptides at 10 μg/ml in 0.01 M acetic acid. After 3 × 200 μl/well washes with washing buffer (1 mg/ml BSA in TBS), plates were blocked with 200 μl per well of filtered 3% BSA in TBS for 1 h at RT. αI-domains were added at 10 μg/ml in washing buffer for 1 h at RT with 5 mM MgCl2 and various concentrations of inhibitor as stated. After 3 × 200 μl/well washes with washing buffer, anti-GST detection antibody (GE Healthcare HRP conjugated anti-GST GERPN1236) were added for 1 h. Plates were washed 4× with 200 μl per well of washing buffer and bound protein was quantified using the Pierce™ TMB Substrate Kit. The colorimetric reaction was stopped with an equal volume of 1 M H2SO4 and A450 was read as above. Each condition was performed in triplicate and each experiment was repeated at least three times using different preparations of proteins. […]
Fig. 1 Inhibition of binding of recombinant αI-domains to peptide coatings. Adhesion of A, α1 I-domain to GLOGEN and B, α2 I-domain to GFOGER, was measured using anti-GST-HRP conjugated antibody as described in Materials and methods, and is shown as mean A450 ± SD. […]

E318A mutation of α2β1 = test system: E318A mutation of α2β1; design: method as in Miller et al., 2009; conditions: ref Miller et al., 2009; cited from earlier work
α10β1 = target: T2, α10β1 (UniProt O75578+P09055); assay: Cellular static adhesion assay: C2C12 cells expressing α10β1 on collagen peptides; format: cell-based, human α-subunit, mouse β-subunit; conditions: C2C12-α10β1, GFOGER and GLOGEN coatings
T2 construct: expressed in transfected cells; host or cells: C2C12-α10 clone (gift, Xintela AB)
Protocol: (§1) C2C12s and HT1080s were grown in Lifetech DMEM/10% FBS and 1% penicillin/streptomycin. All cells were maintained under sterile conditions at 37 °C, 5% CO2. Cells were passaged using Trypsin/EDTA at 37 °C for 5 min and DMEM/10% FBS to quench the trypsin. C2C12 cells were transfected as described previously ([Tiger et al., 2001]). The C2C12-α10 clone was kindly made available by Dr. Evy Lundgren-Åkerlund, Xintela AB, Sweden.
(§2) Immulon 2HB 96-well plates were coated with 100 μl per well of peptides at 10 μg/ml in 0.01 M acetic acid overnight at 4 °C. After 3 × 200 μl/well PBS washes, plates were blocked with 200 μl/well filtered 3% BSA in PBS at RT for 1 h. Plates were washed, and 20,000 cells/well were added at room temperature (RT) for 1 h in serum-free media with 5 mM MgCl2 and varying concentrations of inhibitor. Unbound cells were washed away with 3× washes of 200 μl/well PBS. […] Cell number was quantified using 50 μl per well of the Roche cytotoxicity LDH kit. […] A490 was read in a SpectraMax 190 microplate reader (Molecular Devices). […]
(§3) PRISM 8.2.1 or later (GraphPad, San Diego, CA, USA), was used for all statistical tests. […] Inhibition curves were analysed using nonlinear regression comparing each data set with either a horizontal line model (null hypothesis, no inhibition) or three-parameter dose-response curve (inhibition occurs). […]

α11β1 = target: T3, α11β1 (UniProt P09055+Q9UKX5); assay: Cellular static adhesion assay: C2C12 cells expressing α11β1 on collagen peptides; format: cell-based, human α-subunit, mouse β-subunit
T3 construct: expressed in transfected cells; host or cells: C2C12 mouse myofibroblasts, stably transfected
Protocol: as §1, §2, §3

α2 I-domain = target: T4, α2 I-domain (Homo sapiens, UniProt P17301); assay: Protein static adhesion assay: GST-tagged α2 I-domain adhesion to GFOGER peptide coating; format: binding; conditions: TC-I-15 200 μM, Obtustatin 20 μM
T4 construct: GST-tagged αI-domains were tested in static adhesion assays; made in house
T4 sequence (P17301 188-365 limits assumed): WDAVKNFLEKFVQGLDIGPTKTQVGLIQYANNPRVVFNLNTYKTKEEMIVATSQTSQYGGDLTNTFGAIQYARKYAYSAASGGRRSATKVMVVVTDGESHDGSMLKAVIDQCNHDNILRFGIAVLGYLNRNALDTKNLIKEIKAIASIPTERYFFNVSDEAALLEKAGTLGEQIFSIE
Protocol: Peptides contain a binding motif (such as GFOGER) flanked on either side by five GPP repeats and a GPC triplet at both the N- and C-termini. […] Peptides were dissolved at 5 mg/ml in 0.01 M acetic acid, heated to 70 °C for 5 min and allowed to cool overnight to enable triple helix folding. […]

Lewis lung carcinoma = test system: Lewis lung carcinoma; design: method as in Marcinkiewicz et al., 2003; Brown et al., 2008; conditions: mouse Lewis lung carcinoma model; ref Marcinkiewicz et al., 2003; Brown et al., 2008; cited from earlier work
α2β1 [1] = target: T5, α2β1 (Homo sapiens, UniProt P05556+P17301); assay: Cellular static adhesion assay: HT1080 cells (express α2β1) on GFOGER; format: cell-based; conditions: GFOGER coating, dose curve
T5 construct: endogenous in cells; host or cells: HT1080 human fibrosarcoma cells
Text: (§4) (For interpretation of the references to colour in this figure legend, the reader is referred to the web version of this article.)

melanoma = test system: melanoma; design: method as in Marcinkiewicz et al., 2003; Brown et al., 2008; conditions: mice; ref Marcinkiewicz et al., 2003; Brown et al., 2008; cited from earlier work
α2β1 [2] = target: T6, α2β1 (UniProt P09055+P17301); assay: Cellular static adhesion assay: C2C12 cells expressing α2β1 on collagen peptides; format: cell-based, human α-subunit, mouse β-subunit; conditions: C2C12-α2β1, GFOGER and GLOGEN coatings
T6 construct: expressed in transfected cells; host or cells: C2C12 mouse myofibroblasts, stably transfected
Text: as §4

[3] = target: integrin α1β1 on stably transfected C2C12 cells (human | mouse (endogenous in C2C12)) (UniProt P56199); assay: static cell adhesion assay; inhibition by obtustatin (dose curve) of the adhesion of integrin-expressing cells to coated GFOGER; 1 h at RT, serum-free medium, 5 mM MgCl2; three-parameter dose-response fit
[4] = target: integrin α1β1 on stably transfected C2C12 cells (human | mouse (endogenous in C2C12)) (UniProt P56199); assay: static cell adhesion assay; inhibition by obtustatin (dose curve) of the adhesion of integrin-expressing cells to coated GLOGEN; 1 h at RT, serum-free medium, 5 mM MgCl2; three-parameter dose-response fit

T2 sequence (O75578 23-1167): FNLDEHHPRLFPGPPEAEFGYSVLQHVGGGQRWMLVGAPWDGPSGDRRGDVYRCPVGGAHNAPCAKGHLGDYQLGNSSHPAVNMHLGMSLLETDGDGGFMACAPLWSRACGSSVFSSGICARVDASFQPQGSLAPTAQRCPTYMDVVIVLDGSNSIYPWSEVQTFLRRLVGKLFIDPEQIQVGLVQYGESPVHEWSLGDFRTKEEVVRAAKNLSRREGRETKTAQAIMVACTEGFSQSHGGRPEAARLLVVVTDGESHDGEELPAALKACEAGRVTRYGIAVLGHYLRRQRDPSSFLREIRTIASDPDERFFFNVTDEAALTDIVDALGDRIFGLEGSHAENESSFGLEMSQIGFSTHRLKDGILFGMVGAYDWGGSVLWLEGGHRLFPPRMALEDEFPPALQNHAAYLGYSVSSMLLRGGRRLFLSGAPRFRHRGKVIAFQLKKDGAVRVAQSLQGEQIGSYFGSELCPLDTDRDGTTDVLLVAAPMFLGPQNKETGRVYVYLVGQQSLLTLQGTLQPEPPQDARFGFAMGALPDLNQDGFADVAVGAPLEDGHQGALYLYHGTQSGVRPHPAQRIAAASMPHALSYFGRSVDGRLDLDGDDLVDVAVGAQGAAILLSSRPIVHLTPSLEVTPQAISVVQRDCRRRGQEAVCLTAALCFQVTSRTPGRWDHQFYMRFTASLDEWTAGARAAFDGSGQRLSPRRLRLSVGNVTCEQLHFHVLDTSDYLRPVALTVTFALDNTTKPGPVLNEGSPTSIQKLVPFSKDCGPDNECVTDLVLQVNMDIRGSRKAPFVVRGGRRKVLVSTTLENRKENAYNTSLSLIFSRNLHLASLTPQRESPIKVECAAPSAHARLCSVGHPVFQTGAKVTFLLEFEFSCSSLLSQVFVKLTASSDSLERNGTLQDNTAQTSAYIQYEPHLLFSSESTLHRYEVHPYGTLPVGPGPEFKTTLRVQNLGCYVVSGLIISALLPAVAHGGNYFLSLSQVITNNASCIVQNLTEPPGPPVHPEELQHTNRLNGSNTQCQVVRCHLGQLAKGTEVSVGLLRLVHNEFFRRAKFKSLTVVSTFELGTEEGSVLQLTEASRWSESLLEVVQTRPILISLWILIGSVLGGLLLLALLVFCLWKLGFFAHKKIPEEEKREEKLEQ
T2 sequence (P09055 21-798): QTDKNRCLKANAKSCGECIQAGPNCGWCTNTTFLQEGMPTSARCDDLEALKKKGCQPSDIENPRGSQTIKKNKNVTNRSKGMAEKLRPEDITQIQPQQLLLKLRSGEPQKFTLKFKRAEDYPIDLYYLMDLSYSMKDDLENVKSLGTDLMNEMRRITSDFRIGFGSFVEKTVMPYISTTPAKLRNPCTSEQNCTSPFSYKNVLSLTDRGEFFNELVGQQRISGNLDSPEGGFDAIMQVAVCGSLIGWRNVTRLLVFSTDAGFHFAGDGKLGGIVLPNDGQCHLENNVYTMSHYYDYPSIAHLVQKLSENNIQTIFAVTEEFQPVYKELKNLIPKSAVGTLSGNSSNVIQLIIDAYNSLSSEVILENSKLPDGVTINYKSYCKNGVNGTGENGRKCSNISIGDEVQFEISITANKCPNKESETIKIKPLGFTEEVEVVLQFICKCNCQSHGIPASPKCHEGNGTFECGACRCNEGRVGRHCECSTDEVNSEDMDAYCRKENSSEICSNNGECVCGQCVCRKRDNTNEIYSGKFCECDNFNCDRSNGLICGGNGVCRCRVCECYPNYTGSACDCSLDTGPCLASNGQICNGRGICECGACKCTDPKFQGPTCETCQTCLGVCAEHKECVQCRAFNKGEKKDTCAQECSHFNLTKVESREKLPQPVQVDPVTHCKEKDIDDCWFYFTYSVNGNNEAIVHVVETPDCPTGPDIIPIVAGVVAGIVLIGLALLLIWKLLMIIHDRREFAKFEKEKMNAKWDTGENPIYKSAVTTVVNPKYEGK
T3 sequence (Q9UKX5 23-1188): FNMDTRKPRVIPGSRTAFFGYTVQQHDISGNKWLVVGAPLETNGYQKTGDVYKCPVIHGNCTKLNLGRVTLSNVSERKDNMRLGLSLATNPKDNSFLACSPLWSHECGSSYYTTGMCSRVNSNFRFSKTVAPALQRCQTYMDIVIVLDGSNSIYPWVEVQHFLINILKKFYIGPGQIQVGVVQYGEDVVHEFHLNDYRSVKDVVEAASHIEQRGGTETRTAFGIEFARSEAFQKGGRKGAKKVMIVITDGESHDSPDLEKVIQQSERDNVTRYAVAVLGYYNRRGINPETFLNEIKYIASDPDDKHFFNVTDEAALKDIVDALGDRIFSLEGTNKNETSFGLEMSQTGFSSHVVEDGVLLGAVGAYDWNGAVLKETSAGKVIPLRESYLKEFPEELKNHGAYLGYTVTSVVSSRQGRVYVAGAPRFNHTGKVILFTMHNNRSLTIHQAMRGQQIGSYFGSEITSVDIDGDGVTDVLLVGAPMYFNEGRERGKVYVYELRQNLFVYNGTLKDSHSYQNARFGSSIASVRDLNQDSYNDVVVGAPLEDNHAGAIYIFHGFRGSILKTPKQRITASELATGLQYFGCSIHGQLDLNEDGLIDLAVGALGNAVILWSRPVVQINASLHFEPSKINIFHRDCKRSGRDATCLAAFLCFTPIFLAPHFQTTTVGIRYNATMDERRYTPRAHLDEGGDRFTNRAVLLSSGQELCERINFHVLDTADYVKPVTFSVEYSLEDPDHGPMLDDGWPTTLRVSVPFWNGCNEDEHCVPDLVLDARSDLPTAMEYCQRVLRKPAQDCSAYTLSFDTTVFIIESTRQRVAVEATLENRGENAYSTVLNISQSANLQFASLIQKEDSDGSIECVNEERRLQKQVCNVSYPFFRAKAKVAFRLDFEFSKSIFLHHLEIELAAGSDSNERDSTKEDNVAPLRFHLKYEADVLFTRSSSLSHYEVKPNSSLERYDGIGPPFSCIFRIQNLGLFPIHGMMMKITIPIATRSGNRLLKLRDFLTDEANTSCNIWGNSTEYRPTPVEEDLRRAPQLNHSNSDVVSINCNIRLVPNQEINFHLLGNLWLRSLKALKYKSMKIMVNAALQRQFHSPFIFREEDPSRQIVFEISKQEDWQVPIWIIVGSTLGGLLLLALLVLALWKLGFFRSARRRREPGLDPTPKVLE
T3 sequence (P09055 21-798): as the sequence (P09055 21-798) above
Sequence of integrin α1β1 on stably transfected C2C12 cells (human | mouse (endogenous in C2C12)) (P56199 29-1179, chain 1 of 2): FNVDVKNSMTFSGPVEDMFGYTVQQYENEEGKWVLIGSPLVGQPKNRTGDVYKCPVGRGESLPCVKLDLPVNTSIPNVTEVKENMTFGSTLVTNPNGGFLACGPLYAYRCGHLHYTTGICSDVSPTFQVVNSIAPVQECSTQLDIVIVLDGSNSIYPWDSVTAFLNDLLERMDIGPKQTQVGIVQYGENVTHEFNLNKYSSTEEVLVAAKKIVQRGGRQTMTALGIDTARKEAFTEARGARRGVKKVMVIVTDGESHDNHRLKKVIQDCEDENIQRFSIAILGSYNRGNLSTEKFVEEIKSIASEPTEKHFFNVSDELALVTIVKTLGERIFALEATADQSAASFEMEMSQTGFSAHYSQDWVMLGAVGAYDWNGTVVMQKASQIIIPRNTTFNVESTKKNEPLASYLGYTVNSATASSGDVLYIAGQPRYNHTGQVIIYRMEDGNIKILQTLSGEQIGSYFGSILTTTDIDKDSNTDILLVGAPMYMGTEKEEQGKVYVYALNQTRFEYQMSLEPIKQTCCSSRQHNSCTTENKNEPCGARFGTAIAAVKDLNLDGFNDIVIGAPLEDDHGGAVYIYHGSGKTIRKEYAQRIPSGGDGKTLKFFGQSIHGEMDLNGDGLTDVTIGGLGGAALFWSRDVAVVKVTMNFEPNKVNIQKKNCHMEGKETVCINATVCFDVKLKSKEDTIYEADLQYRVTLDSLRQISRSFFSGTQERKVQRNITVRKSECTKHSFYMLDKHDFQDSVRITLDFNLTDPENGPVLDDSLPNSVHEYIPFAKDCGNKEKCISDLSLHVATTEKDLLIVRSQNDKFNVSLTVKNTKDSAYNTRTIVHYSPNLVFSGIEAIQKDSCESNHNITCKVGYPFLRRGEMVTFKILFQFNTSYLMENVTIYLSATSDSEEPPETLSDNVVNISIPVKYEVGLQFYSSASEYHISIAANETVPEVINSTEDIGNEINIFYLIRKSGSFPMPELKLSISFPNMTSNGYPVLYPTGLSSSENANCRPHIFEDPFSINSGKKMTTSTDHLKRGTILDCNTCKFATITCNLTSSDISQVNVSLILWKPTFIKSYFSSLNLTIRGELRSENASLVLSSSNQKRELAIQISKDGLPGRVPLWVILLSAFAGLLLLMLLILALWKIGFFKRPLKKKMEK
Sequence of integrin α1β1 on stably transfected C2C12 cells (human | mouse (endogenous in C2C12)) (P09055 21-798, chain 2 of 2, further chain): as the sequence (P09055 21-798) above

Row | Compound | Effect on adhesion of platelets to fibronectin and fibrinogen (platelets) | Effect on α1 I-domain adhesion to GLOGEN (α1 I-domain) | Effect on constitutively active E318A mutation of α2β1 (E318A mutation of α2β1) | Inhibition of α10β1-expressing C2C12 cell adhesion (dose curve) (α10β1) | IC50 (α11β1; C2C12-α11β1, GLOGEN coating, 5 mM MgCl2, 1 h RT, read-out: IC50, inhibition of α11β1-expressing C2C12 cell adhesion to GLOGEN) [nM] | Effect on α2 I-domain adhesion to GFOGER (α2 I-domain) | Reduction of tumour development (Lewis lung carcinoma) [%] | Inhibition of α11β1-expressing C2C12 cell adhesion (dose curve) (α11β1; C2C12-α11β1, GFOGER and GLOGEN coatings) | Effect on HT1080 adhesion to GFOGER (α2β1 [1]) | Effect on melanoma growth (melanoma) | Inhibition of α2β1-expressing C2C12 cell adhesion (dose curve) (α2β1 [2]) | IC50 [3] [nM] | IC50 [4] [nM]
1 | CC1(C)SCN(S(=O)(=O)c2ccccc2)[C@@H]1C(=O)N[C@@H](CNC(=O)NCc1ccccc1)C(=O)O [TC-I-15] | no effect | unaffected | no effect | no inhibition was seen | 177000 | – | – | – | – | – | – | – | –
2 | CTTGPCCRQCKLKPAGTTCWKTSLTSHYCTGKSCDCPLYPG (disulfide 1-10, 6-29, 7-34, 19-36 (inferred)) [obtustatin] | – | unaffected | – | no inhibition was observed | – | unaffected | 50 | no inhibition was observed | no effect | blocked melanoma growth | no inhibition was observed | – | –
3 | obtustatin (peptide) | – | – | – | – | – | – | – | – | – | – | – | 450 | 960
